One data set can be described thus: in vitro. The class given is cell-based, human. The following applies: human. The procedure: (§1) Cell-based assays (Results)
(§2) Anti-plasmodial activity assay. This study used human malaria parasite P. falciparum strain 3D7 (chloroquine-sensitive) and the same strain expressing an extra copy of TPK with a GFP-tag ( PfTPK-GFP) generated as previously described. 9 The intraerythrocytic stage of the parasites were maintained essentially as previously described. 10 Compounds were tested at concentrations up to a highest final […]
(§3) were prepared in dimethyl sulfoxide (DMSO) followed by dilution in RPMI 1640 medium in the absence of thiamine or in the presence of 2.97 µM (or 297 µM) thiamine. The final concentration of DMSO that the parasites were exposed to never exceeded 0.05%. Two-fold serial dilutions were then performed, with each concentration tested in triplicate. The assay was performed as described 11 with some modifications. Experiments were initiated with parasites in the ring-stage, a parasitemia level of 0.5% and a haematocrit of 2%. Chloroquine (0.5 µM) was used as the positive control ( i.e. complete inhibition of parasite proliferation), and parasites maintained in the absence of any inhibitor represented 100% parasite proliferation. The final volume in each well was 200 µL. Plates were incubated at 37 °C, under an atmosphere of 96% nitrogen, 3% carbon dioxide and 1% oxygen. Parasite proliferation was measured by performing SYBR-Safe assay. 12 The concentration at which the compound suppresses […]
(§4) Excel and analysed by non-linear regression plot using GraphPad Prism. The data were averaged from three independent experiments.
(§5) Cytotoxicity assay. This study used HFF cells (human foreskin fibroblasts) as described 13 with some modifications. The HFF cells were seeded in 96-well plates at a density of about 13 x 10^4 cells/mL.
(§6) Plates were incubated at 37 °C in a humidified 5% carbon dioxide incubator for 96 h. A sample of the supernatant (150 µL) was then carefully aspirated from each well and discarded. The plates were then stored at -80 °C. SYBR- Safe assay was used. The plates were thawed, SYBR-Safe lysis solution (150 µL) was added to each well and mixed via pipetting to ensure the HFF cells were detached from the plate and lysed. The plates were then processed as described for the anti-plasmodial assay.

Another data set has as its system HFF cells. Kind of data set: in vitro. The class given is cell-based, human. The following applies: IC50 (thiamine-free) vs HFF cytotoxicity. The procedure:
as §1, §2, §3, §4, §5, §6

The subject of data set [1] is P. falciparum 3D7 expressing PfTPK-GFP. Nature of the data set: Anti-plasmodial activity, 3D7 expressing PfTPK-GFP. The following applies: Plasmodium falciparum, 3D7, read-out: IC50 anti-plasmodial activity, PfTPK-GFP. It counts as cell-based. The procedure: as §1, §2
as §3, with “Plates were incubated at 37 °C, under an atmosphere of 96% nitrogen, 3% carbon dioxide and 1% oxygen.” left out, “assay.” for “assay. 12 The concentration at which the compound suppresses”
(§7) Excel and analysed by non-linear regression plot using GraphPad Prism. […]

In data set [2] the test system is P. falciparum 3D7 transfected with an empty plasmid. Kind of data set: Anti-plasmodial activity, 3D7 transfected with an empty plasmid. It counts as cell-based. The following applies: Plasmodium falciparum, 3D7, read-out: IC50 anti-plasmodial activity, empty plasmid. The procedure: as §1, §2
as §3, with “Plates were incubated at 37 °C, under an atmosphere of 96% nitrogen, 3% carbon dioxide and 1% oxygen.” left out, “assay.” for “assay. 12 The concentration at which the compound suppresses”
as §7

Another data set deals with T1, Z. mobilis PDC (Zymomonas mobilis subsp. mobilis, UniProt P06672).
T1 construct: made in house
T1 sequence (P06672 1-568): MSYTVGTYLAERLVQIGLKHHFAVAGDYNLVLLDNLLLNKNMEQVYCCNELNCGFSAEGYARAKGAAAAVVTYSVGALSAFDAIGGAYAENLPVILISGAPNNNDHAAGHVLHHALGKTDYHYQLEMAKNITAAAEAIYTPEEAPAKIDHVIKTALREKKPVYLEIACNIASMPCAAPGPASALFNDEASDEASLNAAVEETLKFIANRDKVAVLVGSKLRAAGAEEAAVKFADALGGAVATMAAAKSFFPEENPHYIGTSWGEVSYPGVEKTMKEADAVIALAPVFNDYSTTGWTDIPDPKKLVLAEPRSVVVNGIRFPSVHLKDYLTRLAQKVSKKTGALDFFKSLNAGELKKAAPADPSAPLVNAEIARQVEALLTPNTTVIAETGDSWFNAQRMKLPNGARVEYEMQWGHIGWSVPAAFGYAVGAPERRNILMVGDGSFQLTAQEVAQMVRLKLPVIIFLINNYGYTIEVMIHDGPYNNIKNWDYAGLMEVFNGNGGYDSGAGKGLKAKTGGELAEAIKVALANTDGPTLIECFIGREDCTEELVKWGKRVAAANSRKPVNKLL
Kind of data set: Z. mobilis PDC inhibitory activity assay (NADH consumption). The following applies: for Ki: Z. mobilis PDC, determined according to the KM for ThDP; for IC50: bacterial PDC (Zymomonas mobilis), [ThDP] 10 μM. The class given is biochemical.

This note sets out measurements from paper PMC10184313, “Inhibition of Thiamine Diphosphate-Dependent Enzymes by Triazole-Based Thiamine Analogues” (ACS Medicinal Chemistry Letters, 2023).

As to `Cc1ncc(Cn2cc(CCCCn3cc(-c4ccc(F)cc4)nn3)nn2)c(N)n1` [Compound 16c], 48 ± 5 µM corresponded to half-maximal inhibition in the data set “in vitro” (IC50 at 96 h). The “Selectivity Index” value with HFF cells is listed as 0.7.
Taken in the same sequence, the figures for `COc1ccc(-c2cn(CCCc3cn(Cc4cnc(C)nc4N)nn3)nn2)cc1` [Compound 17b] were 90 ± 5 µM and 1.8.
The compound `COc1ccc(-c2cn(CCCCc3cn(Cc4cnc(C)nc4N)nn3)nn2)cc1` [Compound 17c] had an IC50 at 96 h in “in vitro” of 46 ± 7 µM. For the same compound, the “Selectivity Index” value with HFF cells stood at 1.1. Also, the half-maximal inhibitory concentration (IC50) in data set [1] turned out to be 44 ± 9 µM; in data set [2] it was 38 ± 7 µM.
As for `Cc1ncc(Cn2cc(CCCC(=O)NO)nn2)c(N)n1` [Compound 24b], the midpoint of inhibition in the data set “in vitro”, the IC50 at 96 h, lay at 15 ± 3 µM. For the same compound, the “Selectivity Index” value in the data set on HFF cells amounted to 16.7. The compound further returned an inhibitory constant (Ki) at Z. mobilis PDC of 0.68 µM. The IC50 against Z. mobilis PDC was 20 ± 2 µM; in data set [1], 2 ± 0.6 µM; in data set [2] it was 1.7 ± 0.3 µM.
`Cc1ncc(Cn2cc(CCCCC(=O)NO)nn2)c(N)n1` [Compound 24c]: the IC50 at 96 h in the data set “in vitro” came to 44 ± 4 µM. For the same compound, the “Selectivity Index” value in the data set on HFF cells is recorded as 14.7. At Z. mobilis PDC, this compound displayed a Ki of 0.89 µM and an IC50 of 25 ± 2 µM.
The compound `Cc1ncc(Cn2cc(CCCn3cc(-c4ccc(F)cc4)nn3)nn2)c(N)n1` [Compound 16b] displayed a half-inhibitory concentration (IC50) at 96 h in the data set “in vitro” of over 200 µM.
Same read-out and setting: as for `COc1ccc(-c2cn(CCc3cn(Cc4cnc(C)nc4N)nn3)nn2)cc1` [Compound 17a], the figure is over 200 µM.

For orientation: IC50 means the midpoint of a concentration-inhibition curve. One may read the Ki as the equilibrium dissociation constant of an inhibitor or competing ligand from its target. A high value points to a looser hold on the target.
